The target in assay [1] is T1, LTB4 receptors (Homo sapiens, UniProt Q15722).
T1 construct: vital U937 cells (differentiated human monocytary cell line with naturally expressed LTB4 receptors); endogenous in cells; host or cells: U937 cells (differentiated, intact/vital)
Description: U937 receptor binding test/LTB4. Particulars: 3H-LTB4 (3 nM), vital U937 cells, incubation 2 hours at 0°C; read-out: Receptor binding U937-8 Ki. The method, then: a) U937—Receptor Binding Test/LTB4
The binding of ^3H-LTB4 (3 nM) to vital U937 cells (differentiated human monocytary cell line with naturally expressed LTB4 receptors) is inhibited, in dosage dependent manner, by an increasing concentration of the test substance (incubation 2 hours at 0°C.). After the unbound ^3H-LTB4 has been separated off by membrane filtration, the radioactivity of the bound LTB4 receptor/^3H-LTB4 complex is quantified by scintillation measurement. The affinity (inhibition constant Kj) was determined by repeated adaptation of a displacement curve to the measurements (program: “coupled mass equilibria” on Wang computer).

The subject of assay [2] is neutrophilic granulocytes. Description: LTB4-induced aggregation of neutrophilic granulocytes in the guinea-pig (in vitro). The class given is cell-based. The following applies: Cavia porcellus, 2 min, inhibition 2 minutes after incubation with test substance in polydiol/DMSO, read-out: LTB4-induced neutroph. Aggr. EC50. On the procedure: b) Aggregation of Neutrophilic Granulocytes in the Guinea-pig
Indicated by LTB4 in vitro (increase in light transmission in the aggregometer, recorded in mm; each experiment repeated twice): inhibition 2 minutes after incubation with test substance in polydiol/DMSO.

Assay [3] has as its system LTB4-induced neutrophilic influx in the mouse ear. Description: Leukotrien-B4-induced accumulation of neutrophiles in the mouse ear. Particulars: po, read-out: LTB4-induced neutroph. Accum. p.o. ED50. The class given is in vivo. The method, then: c) Leukotrien-B4-indicated Accumulation of Neutrophiles in the Mouse Ear
Evaluation of the neutrophilic influx by photometric measurement (mOD/min) of the myeloperoxidase activity (Bradley et al.: J. Invest. Dermatol. 78, 206, 1982) in the skin of the ear. Increase 6 hours after topical treatment of the left ear with LTB4 (250 ng on each side) compared with the right ear (2×5 μl acetone as solvent).
Substance administered by oral route in 1% tylose 300, 30 minutes before the LTB4 stimularion.

T1 sequence (Q15722 whole entry): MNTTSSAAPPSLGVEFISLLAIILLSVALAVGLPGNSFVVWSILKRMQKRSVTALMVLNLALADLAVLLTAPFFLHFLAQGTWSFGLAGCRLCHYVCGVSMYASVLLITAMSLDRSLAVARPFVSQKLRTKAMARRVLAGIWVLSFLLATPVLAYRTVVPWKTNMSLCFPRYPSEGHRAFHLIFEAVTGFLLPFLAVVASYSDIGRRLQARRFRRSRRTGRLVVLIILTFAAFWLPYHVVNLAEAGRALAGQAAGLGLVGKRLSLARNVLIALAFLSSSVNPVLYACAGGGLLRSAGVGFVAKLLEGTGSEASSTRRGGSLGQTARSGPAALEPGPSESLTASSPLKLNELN

One may read the Ki as the equilibrium dissociation constant of an inhibitor or competing ligand from its target. In general, EC50 refers to the concentration that produces a half-maximal response. As a reminder, the ED50 is the dose at which the effect has come halfway, by size or by number of responders. On to `CCCc1c(OC)cccc1OCCCCOc1ccc(C(=N)N)cc1`, for which the Ki in assay [1] came to 12 nM. In addition, in assay [2], the EC50 was 1900 nM. Also, in assay [3], the median effective dose (ED50) turned out to be 0.8 mg/kg.
